Reference: US5538973A, “Imidazole derivative, pharmaceutical use thereof, and intermediate therefor” (Kyoto Pharmaceutical Industries, Ltd., priority 1992, dated 1996)
Where a name gives a salt, the structure may show the parent alone. Read-outs that look alike come from different tables or passages of the source.

Tests used:
[1] = tested on: blood platelet aggregation; experiment: Inhibitory action on blood platelet aggregation (arachidonic acid aggregation in rich platelet plasma, nephelometry); assay type: cell-based; conditions: arachidonic acid 0.1 mM, test drug added 1 minute before, read-out: Exp. 2 (IC50) inhibitory action on blood platelet aggregation
Method: Arachidonic acid aggregation in rich platelet plasma was determined by nephelometry. The test drug was added 1 minute before the addition of the arachidonic acid (0.1 mM).
(§1) The experiments 1-4 described above were conducted using the compounds of Examples 1, 2, 6, 8, 12, 14, 19, 23, 27, 30, 34, and 35 to be mentioned below, compound (V), and Terfenadine, the results of which are shown in Table 1.

[2] = tested on: contraction of lung parenchymal specimen by histamine; experiment: Antihistaminic action: contraction of lung parenchymal specimen caused by histamine; assay type: cell-based; conditions: test compound 10^-5 M, histamine 10^-5 M, guinea pig lung parenchyma; for inhibition at 10 µM: Cavia porcellus, read-out: Exp. 3 % at which the test compound suppressed contraction by histamine
Method: A lung parenchymal specimen extracted from guinea pig was hung in a nutritive solution at 37° C., and applied a load of 0.5 g. Contraction caused by histamine under aeration of 95% O2 +5% CO2 was recorded isometrically. The inhibition by the test drug with respect to the dose-reaction curve by histamine at 10^-7 -10^-4 was examined.
as §1
*% at which the test compound (10^-5 M) suppressed contraction by […]

[3] = tested on: airway contraction by histamine; experiment: Inhibitory action on contraction of respiratory tract by histamine (Konzett and Roessler method); assay type: in vivo, guinea pig; conditions: for inhibition in vivo at 30 mg/kg: Cavia porcellus, po, 1 h, read-out: Exp. 4-1 % at which the test compound suppressed airway contraction by histamine
Method: (§2) A respiratory tract contraction (histamine, LTD4) was intravenously administered to anesthetized guinea pig, and a change in airway resistance was measured in accordance with Konzett end Roessler method. The test drug was orally administered 1 hour before the administration of the contraction inducing agent.
as §1
(§3) **% at which the test compound (30 mg/kg, p.o.) suppressed airway
(§4) contraction by histamine (41) or LTD4 (42)

[4] = tested on: airway contraction by LTD4; experiment: Inhibitory action on contraction of respiratory tract by LTD4 (Konzett and Roessler method); assay type: in vivo, guinea pig; conditions: for inhibition in vivo at 30 mg/kg: Cavia porcellus, po, 1 h, read-out: Exp. 4-2 % at which the test compound suppressed airway contraction by LTD4
Method: as §2, §1, §3, §4

synthesis of TXA2 = experiment: Inhibitory action on synthesis of TXA2 (PGH2 substrate, aspirin-treated platelets, TXB2 by RIA); assay type: cell-based; conditions: Platelet, read-out: Exp. 1 (IC50) inhibitory action on synthesis of TXA2
Method: Prostaglandin H2 (PGH2) was added as a substrate to an aspirin-treated platelet floating solution, and the mixture was incubated at 37° C. The resultant TXA2 was converted to TXB2, and measured by RIA method. The test drug was added 10 minutes before the addition of PGH2.
as §1

male ddy mice = experiment: Acute toxicity, oral, male ddy mice; assay type: in vivo; conditions: 1000 mg/20 ml/kg orally, 5 male ddy mice
Method: The compound of Example 6 was suspended in a 5% gum arabic solution and orally administered to 5 male ddy mice at 1000 mg/20 ml /kg.

[5] = 30 mg/kg, p.o., 1 hour before histamine i.v., anesthetized guinea pig
[6] = 30 mg/kg, p.o., 1 hour before LTD4 i.v., anesthetized guinea pig
[7] = test drug added 10 minutes before PGH2, 37° C.

`O=C(N1CCN(CCOC(c2ccccc2)c2ccccc2)CC1)N1CCc2cc(Cn3ccnc3)ccc21` [Example 12] gave an IC50 ([1]; Platelet) of 18 µM, an inhibition at 10 µM [2] of 61% and an inhibition in vivo at 30 mg/kg [3] of 100%. The inhibition in vivo at 30 mg/kg [4] was 64%.
Compound `c1ccc(C(c2ccccc2)N2CCN(CCCn3ccc4cc(-n5ccnc5)ccc43)CC2)cc1` [Example 19] has an IC50 ([1]; Platelet) of 21 µM, an inhibition at 10 µM [2] of 45% and an inhibition in vivo at 30 mg/kg [3, 5] of 94%. The inhibition in vivo at 30 mg/kg [4, 6] was 40%.
`O=C(CN1CCN(CCOC(c2ccccc2)c2ccccc2)CC1)N1CCc2cc(-n3ccnc3)ccc21` [Example 8] was tested, and the IC50 ([1]; Platelet) was 2.1 µM, the inhibition at 10 µM [2] was 55% and the inhibition in vivo at 30 mg/kg [3] was 100%. It also gave an inhibition in vivo at 30 mg/kg [4] of 87%.
Compound `O=C(N1CCN(CCOC(c2ccccc2)c2ccccc2)CC1)N1CCc2cc(-n3ccnc3)ccc21` [Example 2, 1-{4-[(2-benzhydryloxyethyl)-1-piperazinyl]-carbonyl}-5-(1H-imidazol-1-yl)indoline oxalate] has an IC50 (synthesis of TXA2) of 1.5 µM, an IC50 ([1]; Platelet) of 4.7 µM and an inhibition at 10 µM [2] of 66%. The inhibition in vivo at 30 mg/kg [3] was 100% and the inhibition in vivo at 30 mg/kg [4] was 83%.
For `O=C(O)c1cc2cc(Cn3ccnc3)ccc2n1CCCN1CCN(C(c2ccccc2)c2ccccc2)CC1` [Example 23], the IC50 ([1]; listed as Ex. 23) was 34 µM, the “Exp. 3 % at which the test compound suppressed contraction by histamine” value ([2]; 10 µM) was 94% and the “Exp. 4-1 % at which the test compound suppressed airway contraction by histamine” value [3, 5] was 94%. For the same compound, the “Exp. 4-2 % at which the test compound suppressed airway contraction by LTD4” value [4, 6] was 53%.
`O=C(O)c1ccc2c(c1)c(CCn1ccnc1)cn2CCCN1CCN(CCOC(c2ccccc2)c2ccccc2)CC1` [Example 35] gave an IC50 ([1]; Platelet) of 71 µM, an inhibition at 10 µM [2] of 100% and an inhibition in vivo at 30 mg/kg [3] of 100%. For the same compound, the inhibition in vivo at 30 mg/kg [4] was 18%.
In the case of `O=C(COCCN1CCN(C(c2ccccc2)c2ccccc2)CC1)N1CCc2cc(-n3ccnc3)ccc21` [Example 1, 1-[2-(4-benzhydryl-1-piperazinyl)ethoxyacetyl]-5-(1H-imidazol-1-yl)indoline oxalate], the IC50 ([1]; Platelet) is reported as 4.4 µM, the inhibition at 10 µM [2] is reported as 95% and the inhibition in vivo at 30 mg/kg [3, 5] is reported as 100%. The inhibition in vivo at 30 mg/kg [4, 6] was 73%.
`O=C(CN1CCN(CCOC(c2ccccc2)c2ccccc2)CC1)N1CCc2cc(Cn3ccnc3)ccc21` [Example 14] showed an IC50 ([1]; Platelet) of 58 µM, an inhibition at 10 µM [2] of 45% and an inhibition in vivo at 30 mg/kg [3] of 100%. It also gave an inhibition in vivo at 30 mg/kg [4] of 42%.
`O=C(O)c1ccc2c(c1)c(CCn1ccnc1)cn2CCCN1CCC(Cc2ccccc2)CC1` [Example 34] was tested, and the IC50 ([1]; Platelet) was over 100 µM, the inhibition at 10 µM [2] was 58% and the inhibition in vivo at 30 mg/kg [3, 5] was 90%. For the same compound, the inhibition in vivo at 30 mg/kg [4, 6] was 31%.
Work on `c1ccc(CC2CCN(CCn3ccc4cc(-n5ccnc5)ccc43)CC2)cc1` [Example 27] yielded an IC50 ([1]; Platelet) of over 100 µM, an inhibition at 10 µM [2] of 58% and an inhibition in vivo at 30 mg/kg [3, 5] of 100%. It also gave an inhibition in vivo at 30 mg/kg [4, 6] of 68%.
Work on `CC(C)(C)c1ccc(C(O)CCCN2CCC(C(O)(c3ccccc3)c3ccccc3)CC2)cc1` (centres unmarked) [Terfenadine, reference compound] yielded an inhibition at 10 µM [2] of 48%, an inhibition in vivo at 30 mg/kg [3, 5] of 100% and an inhibition in vivo at 30 mg/kg [4, 6] of 27%.
For `Cl.Cl.Cl.O=C(O)c1cc2cc(Cn3ccnc3)ccc2n1CCCN1CCN(C(c2ccccc2)c2ccccc2)CC1` [Example 6, 1-[3-(4-benzhydryl-1-piperazinyl)propyl]-5-(1H-imidazol-1-ylmethyl)-1H-indole-2-carboxylic acid trihydrochloride], the IC50 (synthesis of TXA2; [7]) was 0.4 µM, the IC50 ([1]; listed as Ex. 6, trihydrochloride) was 8.1 µM and the inhibition at 10 µM [2] was 100%. The inhibition in vivo at 30 mg/kg [3, 5] was 100%, the “Exp. 4-2 % at which the test compound suppressed airway contraction by LTD4” value [4, 6] was 75% and the death (male ddy mice) was “No death was observed”.
Work on `O=C(O)c1ccc2c(Cn3ccnc3)cn(CCCN3CCC(Cc4ccccc4)CC3)c2c1` [Example 30] yielded an IC50 ([1]; Platelet) of 9.9 µM, an inhibition at 10 µM [2] of 100% and an inhibition in vivo at 30 mg/kg [3, 5] of 100%. The inhibition in vivo at 30 mg/kg [4, 6] was 26%.
In the case of `O=C(O)C=Cc1ccc(Cn2ccnc2)cc1` [Compound (V), reference compound], the IC50 (synthesis of TXA2; [7]) is reported as 1.5 µM, the IC50 ([1]; Platelet) is reported as 54 µM and the inhibition at 10 µM [2] is reported as 8%. For the same compound, the inhibition in vivo at 30 mg/kg [3, 5] was 4% and the inhibition in vivo at 30 mg/kg [4, 6] was 57%.
